# Assay results: patent publication US10206937B2, “Boronic acid derivatives and therapeutic uses thereof” (Qpex Biopharma, Inc., priority 2014, dated 2019)
# Tested on: strains of Enterobacteriaceae producing various carbapenemases (class A, D and B; 104 strains)
# Assay: Antibiotics potentiation by Compound 27 (MIC; meropenem, doripenem, ertapenem, cefepime)
# Format: cell-based
# Conditions: + 27 = with Compound 27 at fixed 4 μg/ml
smiles,measurement,setting,value
C[C@@H](O)[C@H]1C(=O)N2C(C(=O)O)=C(S[C@@H]3CN[C@H](C(=O)N(C)C)C3)[C@H](C)[C@H]12 [M],MIC,"strain KP1081 Klebsiella pneumoniae (NDM-1, TEM-1, SHV-11, CMY-6, CTX-M-15)",Z (MIC of greater than 10 μg/mL)
same,MIC,"strain KP1082 Klebsiella pneumoniae (KPC-2, SHV-1)",Y (MIC of 1 μg/mL to 10 μg/mL)
same,MIC,"strain KP1083 Klebsiella pneumoniae (KPC-3, SHV-1, TEM-1)",Y (MIC of 1 μg/mL to 10 μg/mL)
same,MIC,"strain KP1084 Klebsiella pneumoniae (KPC-3, SHV-11, TEM-1)",Z (MIC of greater than 10 μg/mL)
same,MIC,"strain KP1086 Klebsiella pneumoniae (OXA-48, CTX-M-15, TEM, SHV)",Z (MIC of greater than 10 μg/mL)
same,MIC,"strain KP1087 Klebsiella pneumoniae (KPC-2, CTX-M-15, SHV-11, TEM-1)",Z (MIC of greater than 10 μg/mL)
same,MIC,"strain KP1088 Klebsiella pneumoniae (KPC-3, SHV-11, TEM-1)",Y (MIC of 1 μg/mL to 10 μg/mL)
same,MIC,"strain KP1089 Klebsiella pneumonias (OXA-181, CTX-M-15, TEM, SHV)",Y (MIC of 1 μg/mL to 10 μg/mL)
same,MIC,strain KP1095 Klebsiella pneumoniae (KPC-2 TEM-1 SHV-1),Y (MIC of 1 μg/mL to 10 μg/mL)
same,MIC,strain KP1096 Klebsiella pneumoniae (KPC-2 TEM-181 SHV-11),Y (MIC of 1 μg/mL to 10 μg/mL)
same,MIC,strain KP1097 Klebsiella pneumonias (IMP-1),Z (MIC of greater than 10 μg/mL)
same,MIC,strain KP1098 Klebsiella pneumoniae (IMP-26),Z (MIC of greater than 10 μg/mL)
same,MIC,strain KP1104 Klebsiella pneumoniae (KPC TEM),Z (MIC of greater than 10 μg/mL)
same,MIC,strain KP1105 Klebsiella pneumoniae (KPC TEM SHV),Z (MIC of greater than 10 μg/mL)
same,MIC,strain KP1159 Klebsiella pneumoniae (SHV-1(2b); CTX-M-15; IMP-4),Z (MIC of greater than 10 μg/mL)
same,MIC,strain KP1160 Klebsiella pneumoniae (SHV-28(2be); CTX-M-15; IMP-26),Z (MIC of greater than 10 μg/mL)
same,MIC,strain KP1161 Klebsiella pneumoniae (NDM-1),Z (MIC of greater than 10 μg/mL)
same,MIC,strain KP1164 Klebsiella pneumoniae (SHV-12(2be); VIM-1),Z (MIC of greater than 10 μg/mL)
same,MIC,strain KP1165 Klebsiella pneumoniae (SHV-11(2b); CTX-M-15; VIM-27),Z (MIC of greater than 10 μg/mL)
same,MIC,strain KP1166 Klebsiella pneumoniae (SHV-5(2be); VIM-26),Z (MIC of greater than 10 μg/mL)
same,MIC,strain KP1167 Klebsiella pneumoniae (SHV-12(2be); VIM-1),X (MIC of less than 1 μg/mL)
same,MIC,strain KP1169 Klebsiella pneumoniae (SHV-11(2b); VIM-1),Z (MIC of greater than 10 μg/mL)
same,MIC,strain KP1170 Klebsiella pneumoniae (SHV-11(2b); CTX-M-15; NDM-1),Z (MIC of greater than 10 μg/mL)
same,MIC,strain KP1172 Klebsiella pneumoniae (SHV-31(2be); DHA-1; VIM-1),Y (MIC of 1 μg/mL to 10 μg/mL)
same,MIC,strain KP1173 Klebsiella pneumoniae (TEM-33(2br); CTX-M-15; IMP-1),Y (MIC of 1 μg/mL to 10 μg/mL)
same,MIC,strain KP1174 Klebsiella pneumoniae (CTX-M-14; IMP-1),Y (MIC of 1 μg/mL to 10 μg/mL)
same,MIC,strain KP1175 Klebsiella pneumoniae (SHV-OSBL(2b); VIM-1),Z (MIC of greater than 10 μg/mL)
same,MIC,"strain KP1177 Klebsiella pneumoniae (SHV-OSBL(2b), TEM-OSBL(2b); CTX-M-15; NDM-1)",Z (MIC of greater than 10 μg/mL)
same,MIC,strain KP1178 Klebsiella pneumoniae (SHV-OSBL(2b;) TEM-OSBL(2b); CTX-M-15; NDM-1),Z (MIC of greater than 10 μg/mL)
same,MIC,"strain KP1179 Klebsiella pneumoniae (SHV-12(2be), TEM-OSBL(2b); CTX-M-15; NDM-7)",Z (MIC of greater than 10 μg/mL)
same,MIC,"strain KP1180 Klebsiella pneumoniae (SHV-OSBL(2b), TEM-OSBL(2b); CTX-M-15; DHA-1; IMP-26)",Y (MIC of 1 μg/mL to 10 μg/mL)
same,MIC,strain KP1181 Klebsiella pneumoniae (SHV-OSBL(2b); CTX-M-15; IMP-26),Y (MIC of 1 μg/mL to 10 μg/mL)
same,MIC,"strain KP1183 Klebsiella pneumoniae (SHV-OSBL(2b), TEM-OSBL(2b); CTX-M-15; NDM-1)",Z (MIC of greater than 10 μg/mL)
same,MIC,strain KP1184 Klebsiella pneumoniae (SHV-OSBL(2b); IMP-1),Y (MIC of 1 μg/mL to 10 μg/mL)
same,MIC,"strain KP1185 Klebsiella pneumoniae (SHV-OSBL(2b), TEM-OSBL(2b); IMP-4)",Z (MIC of greater than 10 μg/mL)
same,MIC,strain KP1186 Klebsiella pneumoniae (CTX-M-15; NDM-1),Z (MIC of greater than 10 μg/mL)
same,MIC,"strain KP1187 Klebsiella pneumoniae (SHV-55(2be), TEM-OSBL(2b); CTX-M-15; NDM-1)",Z (MIC of greater than 10 μg/mL)
same,MIC,strain KP1188 Klebsiella pneumoniae (SHV-OSBL(2b); CTX-M-15; NDM-1),Z (MIC of greater than 10 μg/mL)
same,MIC,strain KP1189 Klebsiella pneumoniae (TEM-OSBL(2b); CTX-M-15; CTX-M-27; NDM-1),Z (MIC of greater than 10 μg/mL)
same,MIC,strain KPM1123 Klebsiella pneumoniae (KPC-2 TEM SHV),Z (MIC of greater than 10 μg/mL)
same,MIC,strain KPM1202 Klebsiella pneumoniae (KPC SHV TEM),Y (MIC of 1 μg/mL to 10 μg/mL)
same,MIC,strain KPM1203 Klebsiella pneumoniae (KPC SHV TEM),Y (MIC of 1 μg/mL to 10 μg/mL)
same,MIC,strain KPM1344 Klebsiella pneumoniae (VIM-1),Y (MIC of 1 μg/mL to 10 μg/mL)
same,MIC,strain KPM1345 Klebsiella pneumoniae (VIM-1 SHV),Z (MIC of greater than 10 μg/mL)
same,MIC,strain KPM1347 Klebsiella pneumoniae (NDM-1 SHV CTX-M-15),Z (MIC of greater than 10 μg/mL)
same,MIC,"strain KX1017 Klebsiella oxytoca (KPC-2, OXA-2, SHV-30)",Y (MIC of 1 μg/mL to 10 μg/mL)
same,MIC,"strain KX1018 Klebsiella oxytoca (KPC-2, SHV-40, OXY-1)",Y (MIC of 1 μg/mL to 10 μg/mL)
same,MIC,"strain KX1019 Klebsiella oxytoca (KPC-2, OXA-2)",Y (MIC of 1 μg/mL to 10 μg/mL)
same,MIC,strain PM1024 Proteus mirabilis (TEM-1(2b); CMY-16; VIM-1),Y (MIC of 1 μg/mL to 10 μg/mL)
same,MIC,strain PM1026 Proteus mirabilis (DHA-1; IMP-26),Z (MIC of greater than 10 μg/mL)
same,MIC,strain PM1027 Proteus mirabilis (VIM-5),Z (MIC of greater than 10 μg/mL)
same,MIC,strain SM1023 Serratia marcescens (VIM-4),Z (MIC of greater than 10 μg/mL)
